Measurements taken from ChEMBL document CHEMBL1201862, “PubChem BioAssay data set” (2004).
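Method: 48-hour compound exposure of cells in 96-well plates, five concentrations, linear interpolation of endpoints. At the GI50, growth is halved.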 The source made the active and inactive calls. Rule as the data show it: active = GI50 up to about 1.1 µM and inactive = higher.

How the values were obtained:
Assay in all cases: DTP human tumour cell line panel, 48 h
[1] = tested on: A498
[2] = tested on: A549
[3] = tested on: CAKI-1
[4] = tested on: CCRF-CEM
[5] = tested on: DMS-114
[6] = tested on: HCC 2998
[7] = tested on: K562
[8] = tested on: Malme-3M
[9] = tested on: NCI-H226
[10] = tested on: NCI-H460
[11] = tested on: OVCAR-3
[12] = tested on: OVCAR-8
[13] = tested on: SK-MEL-5
[14] = tested on: SK-OV-3
[15] = tested on: SN12C
[16] = tested on: TK-10
[17] = tested on: U-251
[18] = tested on: Hs-578T
[19] = tested on: MDA-MB-231
[20] = tested on: NCI/ADR-RES

| Structure (SMILES) | GI50 [1] | GI50 [2] | GI50 [3] | GI50 [4] | GI50 [5] | GI50 [6] | GI50 [7] | GI50 [8] | GI50 [9] | GI50 [10] | GI50 [11] | GI50 [12] | GI50 [13] | GI50 [14] | GI50 [15] | GI50 [16] | GI50 [17] | GI50 [18] | GI50 [19] | GI50 [20] |
| --- | --- | --- | --- | --- | --- | --- | --- | --- | --- | --- | --- | --- | --- | --- | --- | --- | --- | --- | --- | --- |
| CCOC(=O)COS(=O)(=O)C(F)(F)F | > 100 µM (inactive) | > 100 µM (inactive) | > 100 µM (inactive) | > 100 µM (inactive) | 17.1 µM (inactive) | > 100 µM (inactive) | > 100 µM (inactive) | > 100 µM (inactive) | > 100 µM (inactive) | 41.9 µM (inactive) | > 100 µM (inactive) | > 100 µM (inactive) | > 100 µM (inactive) | > 100 µM (inactive) | > 100 µM (inactive) | > 100 µM (inactive) | > 100 µM (inactive) | – | – | – |
| OC12c3ccccc3C1CCCCC2N1CCCC1 (centres undefined) | – | > 100 µM (inactive) | – | > 100 µM (inactive) | > 100 µM (inactive) | – | > 10 µM (inactive) | > 100 µM (inactive) | > 100 µM (inactive) | > 100 µM (inactive) | – | > 100 µM (inactive) | > 100 µM (inactive) | > 100 µM (inactive) | > 100 µM (inactive) | > 100 µM (inactive) | > 100 µM (inactive) | – | – | – |
| C=C(CO)CC(/C=C(\C)CC/C=C(\C)CCl)OC(C)=O (centres undefined) | > 100 µM (inactive) | > 100 µM (inactive) | – | > 100 µM (inactive) | > 100 µM (inactive) | > 100 µM (inactive) | > 100 µM (inactive) | – | > 100 µM (inactive) | > 100 µM (inactive) | > 100 µM (inactive) | > 100 µM (inactive) | > 100 µM (inactive) | > 100 µM (inactive) | > 100 µM (inactive) | > 100 µM (inactive) | > 100 µM (inactive) | – | – | – |
| C1CN2CCN3CCN4CCN1[PH]243 | > 100 µM (inactive) | > 100 µM (inactive) | – | > 100 µM (inactive) | > 100 µM (inactive) | > 100 µM (inactive) | > 100 µM (inactive) | > 100 µM (inactive) | > 100 µM (inactive) | > 100 µM (inactive) | > 100 µM (inactive) | > 100 µM (inactive) | > 100 µM (inactive) | > 100 µM (inactive) | > 100 µM (inactive) | > 100 µM (inactive) | > 100 µM (inactive) | – | – | – |
| CC1=C(C(=O)CC(=O)C(=O)Nc2ccccc2)Sc2ccccc2N1 | > 100 µM (inactive) | > 100 µM (inactive) | – | > 100 µM (inactive) | > 100 µM (inactive) | – | > 100 µM (inactive) | > 100 µM (inactive) | > 100 µM (inactive) | > 100 µM (inactive) | > 100 µM (inactive) | > 100 µM (inactive) | > 100 µM (inactive) | > 100 µM (inactive) | > 100 µM (inactive) | – | > 100 µM (inactive) | – | – | – |
| COCOCCC#CCO | > 100 µM (inactive) | > 100 µM (inactive) | – | > 100 µM (inactive) | > 100 µM (inactive) | > 100 µM (inactive) | > 100 µM (inactive) | > 100 µM (inactive) | – | > 100 µM (inactive) | > 100 µM (inactive) | > 100 µM (inactive) | 72.8 µM (inactive) | > 100 µM (inactive) | > 100 µM (inactive) | > 100 µM (inactive) | > 100 µM (inactive) | – | – | – |
| Cc1nc2ccccc2c(=O)n1/N=C(\N=N\c1ccc(Cl)cc1)c1ccc(N(C)C)cc1 | > 100 µM (inactive) | > 100 µM (inactive) | > 100 µM (inactive) | 81.5 µM (inactive) | 38.9 µM (inactive) | – | 36.6 µM (inactive) | – | – | 93.8 µM (inactive) | – | > 100 µM (inactive) | 54.6 µM (inactive) | > 100 µM (inactive) | 56.9 µM (inactive) | > 100 µM (inactive) | > 10 µM (inactive) | – | – | – |
| O=C(Cn1ccnc1[N+](=O)[O-])NCc1ccc(F)cc1 | > 100 µM (inactive) | > 100 µM (inactive) | > 100 µM (inactive) | > 100 µM (inactive) | > 100 µM (inactive) | – | > 100 µM (inactive) | > 100 µM (inactive) | 40.2 µM (inactive) | > 100 µM (inactive) | 33.5 µM (inactive) | > 100 µM (inactive) | > 100 µM (inactive) | > 100 µM (inactive) | > 100 µM (inactive) | > 100 µM (inactive) | > 100 µM (inactive) | – | – | – |
| CC1=NN(C(=O)Nc2ccc(Cl)cc2)C(=O)C2CCC(=O)N12 (centres undefined) | > 100 µM (inactive) | 49.3 µM (inactive) | 60.3 µM (inactive) | > 100 µM (inactive) | > 100 µM (inactive) | > 100 µM (inactive) | 3.19 µM (inactive) | – | – | 28.3 µM (inactive) | > 100 µM (inactive) | > 100 µM (inactive) | 87.3 µM (inactive) | 38.7 µM (inactive) | > 100 µM (inactive) | > 100 µM (inactive) | > 100 µM (inactive) | – | – | – |
| C=CC(=O)Nc1ccccc1CC(c1c[nH]c2ccccc12)c1c[nH]c2ccccc12 | – | 23.4 µM (inactive) | 18.2 µM (inactive) | 19.9 µM (inactive) | 15.5 µM (inactive) | 18.7 µM (inactive) | 20.7 µM (inactive) | 18 µM (inactive) | 21.3 µM (inactive) | – | 17.7 µM (inactive) | 16.4 µM (inactive) | 17.6 µM (inactive) | 19.8 µM (inactive) | 16.3 µM (inactive) | 26.7 µM (inactive) | – | – | – | – |
| O=C1CC(=O)NC(NN2C(=O)/C(=C/c3ccc(Cl)cc3)N=C2c2ccccc2)=N1 | 16.9 µM (inactive) | 14.6 µM (inactive) | 72.6 µM (inactive) | 6.4 µM (inactive) | – | 11.7 µM (inactive) | 9.62 µM (inactive) | 17.3 µM (inactive) | 16.9 µM (inactive) | 9.53 µM (inactive) | 15.9 µM (inactive) | 14.5 µM (inactive) | 17.7 µM (inactive) | 23 µM (inactive) | 16.8 µM (inactive) | 16.5 µM (inactive) | 15.6 µM (inactive) | 14.3 µM (inactive) | 17.9 µM (inactive) | 14.9 µM (inactive) |
| CC(=O)OC1C2CCC1C1C2C2(Cl)C(Cl)=C(Cl)C1(Cl)C2(Cl)Cl (centres undefined) | 13.9 µM (inactive) | 10.5 µM (inactive) | 13.8 µM (inactive) | – | 12.6 µM (inactive) | – | – | 12.6 µM (inactive) | 13 µM (inactive) | 14.3 µM (inactive) | 11.4 µM (inactive) | 15.4 µM (inactive) | 13 µM (inactive) | 16 µM (inactive) | 15.1 µM (inactive) | 15.3 µM (inactive) | 13.3 µM (inactive) | – | – | – |
| Clc1ccc(CCN2CCOCC2)c(Cl)c1 | > 100 µM (inactive) | > 100 µM (inactive) | > 100 µM (inactive) | > 100 µM (inactive) | > 100 µM (inactive) | > 100 µM (inactive) | > 100 µM (inactive) | > 100 µM (inactive) | – | > 100 µM (inactive) | – | > 100 µM (inactive) | > 100 µM (inactive) | > 100 µM (inactive) | > 100 µM (inactive) | – | > 100 µM (inactive) | – | – | – |
| CCOC1NC(=O)Oc2ccccc21 (centres undefined) | > 100 µM (inactive) | > 100 µM (inactive) | > 100 µM (inactive) | > 100 µM (inactive) | – | > 100 µM (inactive) | > 100 µM (inactive) | > 100 µM (inactive) | > 100 µM (inactive) | > 100 µM (inactive) | 68.2 µM (inactive) | > 100 µM (inactive) | > 100 µM (inactive) | > 100 µM (inactive) | > 100 µM (inactive) | > 100 µM (inactive) | > 100 µM (inactive) | > 100 µM (inactive) | > 100 µM (inactive) | > 100 µM (inactive) |
| CN(C)CCCNC(=O)c1cccc2nc3ccccc3nc12 | 16 µM (inactive) | 12.2 µM (inactive) | > 36.1 µM (inactive) | – | 12.3 µM (inactive) | 14.8 µM (inactive) | 7.46 µM (inactive) | 4.42 µM (inactive) | 12 µM (inactive) | – | 19.4 µM (inactive) | 12.6 µM (inactive) | > 54 µM (inactive) | > 52.1 µM (inactive) | 23.2 µM (inactive) | 27.7 µM (inactive) | 19.1 µM (inactive) | – | – | – |
| O=[N+]([O-])c1cccc2nc3ccccc3c(NCCCN3CCCCC3)c12 | < 0.0115 µM (active) | < 0.01 µM (active) | 0.0312 µM (active) | 0.024 µM (active) | – | < 0.01 µM (active) | < 0.0123 µM (active) | 0.0164 µM (active) | 0.0169 µM (active) | < 0.01 µM (active) | < 0.0126 µM (active) | 0.0132 µM (active) | < 0.011 µM (active) | 0.028 µM (active) | < 0.0105 µM (active) | 0.0256 µM (active) | < 0.0135 µM (active) | 0.0385 µM (active) | 0.016 µM (active) | 0.418 µM (active) |
| CP1(=O)CCCCC1 | – | > 100 µM (inactive) | > 100 µM (inactive) | > 100 µM (inactive) | > 100 µM (inactive) | > 100 µM (inactive) | > 100 µM (inactive) | > 100 µM (inactive) | > 100 µM (inactive) | > 100 µM (inactive) | > 100 µM (inactive) | > 100 µM (inactive) | > 100 µM (inactive) | > 100 µM (inactive) | > 100 µM (inactive) | > 100 µM (inactive) | > 100 µM (inactive) | – | – | – |
| OCC(O)C(O)C(O)c1nn(-c2ccccc2)c2nc3cc(Cl)c(Cl)cc3nc12 (centres undefined) | – | 26.7 µM (inactive) | 20 µM (inactive) | 40.5 µM (inactive) | 31.6 µM (inactive) | 32.9 µM (inactive) | 18.6 µM (inactive) | 19.3 µM (inactive) | 36.5 µM (inactive) | 44.1 µM (inactive) | 40.3 µM (inactive) | 70.8 µM (inactive) | – | > 100 µM (inactive) | 41.9 µM (inactive) | 36.1 µM (inactive) | 70.5 µM (inactive) | – | – | – |
